# Measured values published in publication PMC8391922, “The Combined Effect of Branching and Elongation on the Bioactivity Profile of Phytocannabinoids. Part I: Thermo-TRPs” (Biomedicines, 2021).
# Several values for one entry are separate records, joined by “and”; a condition that tells them apart may be missing. Equal entries are not always repeated. Where two headings read alike, the source gives them in different places.
# Assays:
# rat TRPA1 [1] = biological target: T1, rat TRPA1 (Rattus norvegicus, UniProt Q6RI86); design: method as in PMID 21175579; details: cited from earlier work; for TRPA1 Efficacy (%ITC 100 μM): percentage of the effect of 100 μM allylisothiocyanate
# T1 construct: expressed in transfected cells; host or cells: HEK-293
# human TRPV1 [2] = biological target: T2, human TRPV1 (Homo sapiens, UniProt Q8NER1); design: method as in PMID 21175579; details: cited from earlier work; for TRPV1 Efficacy (% IM 4 μM): percentage of the response to ionomycin 4 μM
# T2 construct: expressed in transfected cells; host or cells: HEK-293
# rat TRPV2 [3] = biological target: T3, rat TRPV2 (Rattus norvegicus, UniProt Q9WUD2); design: method as in PMID 21175579, PMID 21726418; details: cited from earlier work; for TRPV2 Efficacy (% IM 4 μM): percentage of the response to ionomycin 4 μM; for IC50: read-out: IC50 TRPV2
# T3 construct: expressed in transfected cells; host or cells: HEK-293
# T3 sequence (Q9WUD2 1-761): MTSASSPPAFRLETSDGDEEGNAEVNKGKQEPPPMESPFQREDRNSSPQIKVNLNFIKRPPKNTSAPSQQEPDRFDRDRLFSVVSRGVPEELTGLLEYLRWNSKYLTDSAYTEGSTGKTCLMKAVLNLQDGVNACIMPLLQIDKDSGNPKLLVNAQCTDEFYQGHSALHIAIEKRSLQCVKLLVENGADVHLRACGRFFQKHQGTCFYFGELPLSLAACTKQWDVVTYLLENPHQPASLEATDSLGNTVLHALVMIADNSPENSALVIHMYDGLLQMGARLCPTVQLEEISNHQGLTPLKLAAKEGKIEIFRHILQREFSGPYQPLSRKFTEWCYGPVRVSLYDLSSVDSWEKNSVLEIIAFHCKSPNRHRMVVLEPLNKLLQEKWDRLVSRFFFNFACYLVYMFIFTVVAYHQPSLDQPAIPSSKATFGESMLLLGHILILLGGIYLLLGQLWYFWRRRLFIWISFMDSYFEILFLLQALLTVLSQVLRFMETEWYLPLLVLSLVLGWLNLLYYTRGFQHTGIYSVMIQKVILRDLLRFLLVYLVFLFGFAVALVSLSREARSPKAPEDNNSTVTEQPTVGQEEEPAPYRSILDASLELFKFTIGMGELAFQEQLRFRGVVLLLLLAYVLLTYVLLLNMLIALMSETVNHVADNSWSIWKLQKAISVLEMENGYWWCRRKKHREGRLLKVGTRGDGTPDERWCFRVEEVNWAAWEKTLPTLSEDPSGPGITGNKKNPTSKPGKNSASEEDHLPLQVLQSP
# rat TRPV4 [4] = biological target: T4, rat TRPV4 (Rattus norvegicus, UniProt Q9ERZ8); design: method as in PMID 21175579, PMID 21726418; details: cited from earlier work; for TRPV4 Efficacy (% IM 4 μM): percentage of the response to ionomycin 4 μM; for EC50: read-out: TRPV4 Potency EC50, half-maximal increase in [Ca2+]i
# T4 construct: expressed in transfected cells; host or cells: HEK-293
# rat TRPV3 = biological target: T5, rat TRPV3 (Rattus norvegicus, UniProt Q4QYD9); design: method as in PMID 21175579, PMID 21726418; details: cited from earlier work; for TRPV3 Efficacy (% IM 4 μM): percentage of the response to ionomycin 4 μM; for EC50: read-out: TRPV3 Potency EC50, half-maximal increase in [Ca2+]i
# T5 construct: expressed in transfected cells; host or cells: HEK-293
# T5 sequence (Q4QYD9 1-791): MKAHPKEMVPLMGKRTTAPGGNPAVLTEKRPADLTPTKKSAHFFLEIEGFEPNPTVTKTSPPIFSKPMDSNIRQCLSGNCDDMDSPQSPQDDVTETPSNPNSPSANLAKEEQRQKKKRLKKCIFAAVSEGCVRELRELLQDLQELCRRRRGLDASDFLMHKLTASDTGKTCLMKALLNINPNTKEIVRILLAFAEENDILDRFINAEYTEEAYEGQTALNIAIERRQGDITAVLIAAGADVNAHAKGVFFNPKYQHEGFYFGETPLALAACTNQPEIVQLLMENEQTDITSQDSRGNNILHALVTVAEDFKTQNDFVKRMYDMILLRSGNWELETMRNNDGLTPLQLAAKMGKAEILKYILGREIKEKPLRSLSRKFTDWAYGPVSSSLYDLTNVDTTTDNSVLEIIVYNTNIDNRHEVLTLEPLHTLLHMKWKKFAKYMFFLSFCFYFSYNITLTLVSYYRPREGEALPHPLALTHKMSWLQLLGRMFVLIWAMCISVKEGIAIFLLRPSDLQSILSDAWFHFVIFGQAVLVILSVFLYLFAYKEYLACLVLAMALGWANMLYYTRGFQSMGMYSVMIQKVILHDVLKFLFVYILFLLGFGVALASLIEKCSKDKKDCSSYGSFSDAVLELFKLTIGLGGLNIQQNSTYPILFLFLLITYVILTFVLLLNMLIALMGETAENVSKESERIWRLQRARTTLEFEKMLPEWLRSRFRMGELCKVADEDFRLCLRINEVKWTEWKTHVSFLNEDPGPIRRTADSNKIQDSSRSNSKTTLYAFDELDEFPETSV
# rat TRPM8 [5] = biological target: T6, rat TRPM8 (Rattus norvegicus, UniProt Q8R455); design: method as in PMID 21175579; details: read-out: IC50 TRPM8; against agonist icilin 0.25 μM; cited from earlier work
# T6 construct: expressed in transfected cells; host or cells: HEK-293
# human TRPV1 [6] = biological target: T2, human TRPV1; experiment: TRPV1-mediated elevation of intracellular Ca2+ (Fluo-4) in transfected HEK-293 cells; assay type: cell-based
# Description: (§1) Assays of rat TRPA1, TRPV2, TRPV3, TRPV4, and TRPM8 or human TRPV1 mediated elevation of intracellular Ca ^2+ in transfected HEK-293 cells were performed with a continuous monitoring of [Ca ^2+]i during the experiments. […] Cell fluorescence before and after the addition of various concentrations of test compounds was measured, normalizing the effects against the response to ionomycin (IM, 4 μM). The values of the effect on [Ca^2+]i in HEK-293 cells not transfected were used as baseline and subtracted from the values obtained from transfected cells. For TRPA1, agonist efficacy was expressed as a percentage of the effect on [Ca ^2+]i observed with 100 μM allylisothiocyanate. […] In the TRPV3 assay, TRPV3-expressing HEK293 cells were first sensitized with the structurally unrelated agonist 2-aminoethoxydiphenyl borate (100 μM). Antagonist/desensitizing behavior is evaluated against the agonist of the TRP analyzed by adding the compounds directly in the quartz cuvette 5 min before stimulation of cells with the agonist. […] Dose-response curve fitting (sigmoidal dose-response variable slope) and parameter estimation were performed with Graph-Pad Prism8 (GraphPad Software Inc., San Diego, CA, USA). All determinations were performed at least in triplicate.
# rat TRPM8 [7] = biological target: T6, rat TRPM8; experiment: TRPM8 antagonism of icilin-induced intracellular Ca2+ elevation (Fluo-4) in transfected HEK-293 cells; assay type: cell-based; details: IC50 TRPM8, antagonist; compound added 5 min before agonist icilin 0.25 μM
# Description: as §1
# rat TRPA1 [8] = biological target: T1, rat TRPA1; experiment: TRPA1-mediated elevation of intracellular Ca2+ (Fluo-4) in transfected HEK-293 cells; assay type: cell-based
# Description: as §1
# rat TRPV4 [9] = biological target: T4, rat TRPV4; experiment: TRPV4-mediated elevation of intracellular Ca2+ (Fluo-4) in transfected HEK-293 cells; assay type: cell-based
# Description: as §1
# rat TRPV2 [10] = biological target: T3, rat TRPV2; experiment: TRPV2-mediated elevation of intracellular Ca2+ (Fluo-4) in transfected HEK-293 cells; assay type: cell-based
# Description: as §1
# [11] = percentage of the response to ionomycin 4 μM, HEK-293
# T1 sequence (Q6RI86 whole entry): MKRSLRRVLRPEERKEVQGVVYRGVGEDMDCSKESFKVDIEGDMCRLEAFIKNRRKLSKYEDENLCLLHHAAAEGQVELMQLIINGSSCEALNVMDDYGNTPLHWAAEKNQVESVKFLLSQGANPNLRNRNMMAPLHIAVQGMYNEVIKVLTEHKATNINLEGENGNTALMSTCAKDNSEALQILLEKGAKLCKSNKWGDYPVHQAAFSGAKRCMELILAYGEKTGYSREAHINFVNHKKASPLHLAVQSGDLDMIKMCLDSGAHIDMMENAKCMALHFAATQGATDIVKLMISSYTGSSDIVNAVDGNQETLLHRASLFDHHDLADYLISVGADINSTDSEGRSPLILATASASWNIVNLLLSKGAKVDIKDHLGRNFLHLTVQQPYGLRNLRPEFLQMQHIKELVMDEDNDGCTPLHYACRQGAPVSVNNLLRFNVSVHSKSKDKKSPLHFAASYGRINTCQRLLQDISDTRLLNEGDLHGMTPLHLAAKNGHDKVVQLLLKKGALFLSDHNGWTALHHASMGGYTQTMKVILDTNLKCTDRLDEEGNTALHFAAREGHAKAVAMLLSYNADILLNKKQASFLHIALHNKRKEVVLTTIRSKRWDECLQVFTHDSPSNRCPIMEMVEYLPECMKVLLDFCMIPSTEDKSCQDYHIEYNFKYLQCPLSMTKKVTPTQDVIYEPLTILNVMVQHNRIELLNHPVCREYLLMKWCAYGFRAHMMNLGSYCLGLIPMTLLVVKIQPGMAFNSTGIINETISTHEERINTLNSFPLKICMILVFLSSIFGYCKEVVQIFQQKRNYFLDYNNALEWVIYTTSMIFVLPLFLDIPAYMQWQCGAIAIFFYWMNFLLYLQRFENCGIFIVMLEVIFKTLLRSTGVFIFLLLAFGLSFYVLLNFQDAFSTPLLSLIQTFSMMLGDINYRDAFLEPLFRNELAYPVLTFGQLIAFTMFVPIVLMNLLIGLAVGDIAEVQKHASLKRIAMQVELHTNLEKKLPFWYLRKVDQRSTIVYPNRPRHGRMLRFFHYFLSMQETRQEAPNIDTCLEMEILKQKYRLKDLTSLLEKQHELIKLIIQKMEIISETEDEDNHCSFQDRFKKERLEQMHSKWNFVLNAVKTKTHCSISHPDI
# T4 sequence (Q9ERZ8 whole entry): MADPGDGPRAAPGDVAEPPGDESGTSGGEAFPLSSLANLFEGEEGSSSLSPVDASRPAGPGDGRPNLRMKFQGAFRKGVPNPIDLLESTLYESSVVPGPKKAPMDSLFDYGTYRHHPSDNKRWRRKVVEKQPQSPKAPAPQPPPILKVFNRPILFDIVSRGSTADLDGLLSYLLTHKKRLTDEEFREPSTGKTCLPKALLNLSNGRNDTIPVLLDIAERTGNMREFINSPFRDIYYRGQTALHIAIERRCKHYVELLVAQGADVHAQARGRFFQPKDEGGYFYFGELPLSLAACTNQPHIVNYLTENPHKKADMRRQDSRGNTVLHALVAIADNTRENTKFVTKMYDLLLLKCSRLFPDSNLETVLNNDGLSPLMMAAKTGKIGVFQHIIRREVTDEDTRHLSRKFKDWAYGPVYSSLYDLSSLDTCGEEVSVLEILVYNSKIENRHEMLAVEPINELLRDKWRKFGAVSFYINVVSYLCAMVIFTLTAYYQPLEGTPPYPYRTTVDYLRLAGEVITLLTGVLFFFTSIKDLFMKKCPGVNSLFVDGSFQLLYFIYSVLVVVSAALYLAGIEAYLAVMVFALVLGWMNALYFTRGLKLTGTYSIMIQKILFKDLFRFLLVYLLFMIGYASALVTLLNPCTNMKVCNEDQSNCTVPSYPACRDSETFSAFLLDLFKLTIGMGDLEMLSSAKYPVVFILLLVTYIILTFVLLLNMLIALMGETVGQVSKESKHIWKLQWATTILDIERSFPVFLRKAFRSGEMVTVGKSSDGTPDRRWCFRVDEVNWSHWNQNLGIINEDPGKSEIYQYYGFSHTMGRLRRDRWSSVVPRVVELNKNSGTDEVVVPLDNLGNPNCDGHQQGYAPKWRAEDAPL
# T2 sequence (Q8NER1 whole entry): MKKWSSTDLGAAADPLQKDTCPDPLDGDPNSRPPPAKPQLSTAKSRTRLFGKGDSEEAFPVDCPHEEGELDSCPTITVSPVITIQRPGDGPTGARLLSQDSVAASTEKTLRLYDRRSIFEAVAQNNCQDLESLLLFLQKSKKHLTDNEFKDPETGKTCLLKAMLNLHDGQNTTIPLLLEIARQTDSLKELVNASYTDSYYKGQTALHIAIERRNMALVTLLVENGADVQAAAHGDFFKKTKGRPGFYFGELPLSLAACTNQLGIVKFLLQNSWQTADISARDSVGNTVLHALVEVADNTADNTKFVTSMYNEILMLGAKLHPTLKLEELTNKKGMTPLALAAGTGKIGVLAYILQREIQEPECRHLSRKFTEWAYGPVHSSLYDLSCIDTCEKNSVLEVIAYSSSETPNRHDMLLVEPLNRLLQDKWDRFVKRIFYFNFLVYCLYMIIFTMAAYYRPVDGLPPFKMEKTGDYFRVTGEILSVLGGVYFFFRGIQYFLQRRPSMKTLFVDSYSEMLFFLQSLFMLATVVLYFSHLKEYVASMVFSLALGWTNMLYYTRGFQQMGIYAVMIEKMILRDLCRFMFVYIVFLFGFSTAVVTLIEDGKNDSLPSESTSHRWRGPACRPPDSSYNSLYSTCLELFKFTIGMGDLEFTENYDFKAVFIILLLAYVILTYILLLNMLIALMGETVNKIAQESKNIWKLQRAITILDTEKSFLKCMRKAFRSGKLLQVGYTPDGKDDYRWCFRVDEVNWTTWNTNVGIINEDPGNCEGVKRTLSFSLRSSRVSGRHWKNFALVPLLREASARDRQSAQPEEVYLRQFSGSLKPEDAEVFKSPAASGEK
# T6 sequence (Q8R455 whole entry): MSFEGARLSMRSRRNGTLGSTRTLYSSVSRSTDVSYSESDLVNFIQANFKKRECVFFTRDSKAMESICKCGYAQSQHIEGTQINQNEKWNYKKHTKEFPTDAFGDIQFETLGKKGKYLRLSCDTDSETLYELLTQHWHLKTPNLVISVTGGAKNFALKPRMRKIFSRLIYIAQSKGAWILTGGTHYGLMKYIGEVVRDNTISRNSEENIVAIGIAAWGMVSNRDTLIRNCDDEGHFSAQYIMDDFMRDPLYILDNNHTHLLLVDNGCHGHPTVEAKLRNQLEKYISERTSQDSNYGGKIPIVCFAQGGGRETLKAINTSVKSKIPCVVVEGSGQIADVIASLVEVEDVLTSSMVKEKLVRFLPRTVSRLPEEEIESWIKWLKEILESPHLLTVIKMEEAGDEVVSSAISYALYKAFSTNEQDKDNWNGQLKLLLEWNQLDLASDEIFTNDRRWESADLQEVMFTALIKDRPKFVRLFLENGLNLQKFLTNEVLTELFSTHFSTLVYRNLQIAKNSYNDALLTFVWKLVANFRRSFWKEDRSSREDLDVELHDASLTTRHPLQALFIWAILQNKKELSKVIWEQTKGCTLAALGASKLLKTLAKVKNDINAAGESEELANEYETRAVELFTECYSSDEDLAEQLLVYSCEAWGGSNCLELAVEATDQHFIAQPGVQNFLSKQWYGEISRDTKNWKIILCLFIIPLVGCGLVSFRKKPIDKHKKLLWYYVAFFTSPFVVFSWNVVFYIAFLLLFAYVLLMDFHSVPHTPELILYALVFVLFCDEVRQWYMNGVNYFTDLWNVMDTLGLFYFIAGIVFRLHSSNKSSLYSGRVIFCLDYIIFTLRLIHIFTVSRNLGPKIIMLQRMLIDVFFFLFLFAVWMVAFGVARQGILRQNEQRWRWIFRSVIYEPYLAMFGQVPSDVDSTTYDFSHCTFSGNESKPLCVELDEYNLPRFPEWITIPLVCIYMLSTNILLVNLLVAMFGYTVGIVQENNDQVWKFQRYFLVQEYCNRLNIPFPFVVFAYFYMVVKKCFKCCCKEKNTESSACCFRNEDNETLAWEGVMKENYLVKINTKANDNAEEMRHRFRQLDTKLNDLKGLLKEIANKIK
compound,measurement,setting,value
"C=C(C)[C@@H]1CCC(C)=C[C@H]1c1c(O)cc(CCCCC)cc1O [1a, cannabidiol]",TRPA1 Efficacy (%ITC 100 μM),rat TRPA1 [1],115.9 ± 4.6%
same,IC50,"rat TRPA1 [1]; read-out: IC50 TRPA1, against agonist AITC 100 μM",0.16 µM
same,IC50 TRPV1,human TRPV1 [2]; against agonist capsaicin 0.1 μM,sub/low micromolar range
same,TRPV1 Efficacy (% IM 4 μM),human TRPV1 [2],44.7 ± 0.02%
same,IC50,"human TRPV1 [2]; read-out: IC50 TRPV1, against agonist capsaicin 0.1 μM",0.6 µM
same,TRPV2 Efficacy (% IM 4 μM),rat TRPV2 [3],40.5 ± 1.6%
same,IC50,rat TRPV2 [3]; against agonist LPC 3 μM,4.5 µM
same,TRPV4 Efficacy (% IM 4 μM),rat TRPV4 [4],16.7 ± 1.0%
same,IC50,"rat TRPV4 [4]; read-out: IC50 TRPV4, against agonist 4αPDD 1 μM",1.1 µM
same,EC50,rat TRPV4 [4],0.8 µM
same,TRPV3 Efficacy (% IM 4 μM),rat TRPV3,50.1 ± 4.8%
same,IC50,"rat TRPV3; read-out: IC50 TRPV3, against agonist carvacrol 1 mM",0.9 µM
same,EC50,rat TRPV3,3.7 µM
"CCCCCc1cc(O)c2c(c1)OC(C)(C)[C@@H]1CC=C(C)C[C@@H]21 [6a, Δ^8-tetrahydrocannabinol]",TRPA1 Efficacy (%ITC 100 μM),rat TRPA1 [1],117.0 ± 12.0%
same,EC50,"rat TRPA1 [1]; read-out: TRPA1 Potency EC50, half-maximal increase in [Ca2+]i",0.23 µM
same,TRPV1 Efficacy (% IM 4 μM),human TRPV1 [2],< 10%
same,IC50,rat TRPM8 [5],0.16 µM
same,TRPV2 Efficacy (% IM 4 μM),rat TRPV2 [3],53.0 ± 1.4% and 39.9 ± 2.1%
same,IC50,rat TRPV2 [3]; against agonist CBD 2 μM,0.8 µM
same,TRPV4 Efficacy (% IM 4 μM),rat TRPV4 [4],<10 <10% and 15.3 ± 1.5%
same,EC50,rat TRPV4 [4],16.1 ± 4.5 µM
same,TRPV3 Efficacy (% IM 4 μM),rat TRPV3,18.2 ± 1.0% and 13.1 ± 2.4%
same,EC50,rat TRPV3,9.5 µM and 5.3 µM
"CCCCCCC(C)(C)c1cc(O)c2c(c1)OC(C)(C)[C@@H]1CC=C(C)C[C@@H]21 [6b, Depentyl-α,α-dimethylheptyl-Δ^8-tetrahydrocannabinol]",EC50,human TRPV1 [6],> 100 µM
same,IC50,human TRPV1 [6],> 100 µM
same,TRPV1 Efficacy (% IM 4 μM),human TRPV1 [6]; [11],15.3%
same,IC50,rat TRPM8 [7],39.9 ± 6.9 µM
same,EC50,rat TRPA1 [8],4.8 ± 1.1 µM
same,IC50,rat TRPA1 [8],6 ± 0.9 µM
same,TRPA1 Efficacy (%ITC 100 μM),"rat TRPA1 [8]; percentage of the effect of 100 μM allylisothiocyanate on [Ca2+]i, HEK-293",124.2 ± 4.0%
same,EC50,rat TRPV4 [9],16.1 ± 21.6 µM
same,IC50,rat TRPV4 [9],> 100 µM
same,TRPV4 Efficacy (% IM 4 μM),rat TRPV4 [9]; [11],<10 <10% and 12.1 ± 0.2%
same,EC50,rat TRPV2 [10],0.25 ± 0.03 µM
same,IC50,"rat TRPV2 [10]; IC50 TRPV2, antagonist/desensitizing, compound added 5 min before agonist CBD 2 μM",45.8 µM and > 50 µM
same,TRPV2 Efficacy (% IM 4 μM),rat TRPV2 [10]; [11],< 10% and 10.5 ± 0.02%
